# Results from US20110218189A1, “PYRROLO[2,3-d]PYRIMIDIN-2-YL-AMINE DERIVATIVES AS PKC-THETA INHIBITORS” (N.V. ORGANON, priority 2008, published 2011).
# Target: T1, His-tagged human recombinant active PKC theta (Homo sapiens, UniProt Q04759)
# T1 construct: His; made in house
# Assay: IMAP fluorescence polarization assay, inhibition of PKC theta kinase activity
# Type: biochemical
# Conditions: ATP 10 μM, peptide substrate 50 nM, 60 minutes at 30° C.; read-out: IC50 IMAP PKCθ
# Protocol: Inhibition of PKC theta kinase activity was measured using an Immobilized Metal for Phosphochemicals—based coupled assay (IMAP). IMAP is a homogeneous fluorescence polarization (FP) assay based on affinity capture of phosphorylated peptide substrates. IMAP uses fluorescein-labeled peptide substrates that, upon phosphorylation by a protein kinase, bind to so called IMAP nanoparticles, which are derivatized with trivalent metal complexes. Such binding causes a change in the rate of the molecular motion of the peptide, and results in an increase in the FP value observed for the fluorescein label attached to the substrate peptide. In this assay, PKC theta directly phosphorylates the fluorescein-labeled peptide substrate.
# Enzymes, substrate and ATP are diluted at all steps in Kinase Reaction buffer (10 mM Tris-HCl, 10 mM MgCl2, 0.01% Tween-20, 0.05% NaN3 pH 7.2, 1 mM DTT). The final volume at the kinase reaction step of the assay in the 384-well plate is 20 μl. The concentrations presented within brackets are final concentrations. First, compounds or DMSO (1%) are added to the wells. Thereafter, peptide substrate (Pseudosubstrate LHQRRGSIKQAKVHHVK-FL, Neosystem, 50 nM) and ATP (10 μM) are added followed by the addition of the PKC theta enzyme (His-tagged human recombinant active PKC theta, 82 kDa, in-house purified, 10 ng/ml), and the mix is incubated for 60 minutes at 30° C. in the dark. Then IMAP progressive binding buffer (100% 1× buffer A, 1:400 Progressive Binding Reagent; Molecular Devices) is added followed by an incubation step of 60 minutes at room temperature in the dark. Finally, the FP signal is read.
# T1 sequence (Q04759 whole entry): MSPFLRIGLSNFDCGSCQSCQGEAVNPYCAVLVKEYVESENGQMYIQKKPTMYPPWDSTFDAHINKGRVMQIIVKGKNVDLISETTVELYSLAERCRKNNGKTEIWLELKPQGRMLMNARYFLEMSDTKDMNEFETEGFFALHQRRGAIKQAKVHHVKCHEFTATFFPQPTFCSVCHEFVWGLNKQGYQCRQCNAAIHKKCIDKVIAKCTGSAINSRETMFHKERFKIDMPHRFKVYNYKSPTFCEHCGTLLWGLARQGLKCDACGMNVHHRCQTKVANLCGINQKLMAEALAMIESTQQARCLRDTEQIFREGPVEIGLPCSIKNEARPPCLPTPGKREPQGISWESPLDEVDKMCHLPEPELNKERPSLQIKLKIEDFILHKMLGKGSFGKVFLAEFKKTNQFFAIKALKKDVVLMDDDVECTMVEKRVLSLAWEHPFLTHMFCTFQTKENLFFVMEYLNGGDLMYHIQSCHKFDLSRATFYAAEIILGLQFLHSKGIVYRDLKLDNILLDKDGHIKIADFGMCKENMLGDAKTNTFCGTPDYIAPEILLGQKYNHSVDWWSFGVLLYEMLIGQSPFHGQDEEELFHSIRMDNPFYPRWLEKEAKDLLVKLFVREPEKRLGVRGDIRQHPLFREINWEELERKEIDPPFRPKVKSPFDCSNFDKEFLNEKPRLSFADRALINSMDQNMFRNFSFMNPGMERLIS
row,SMILES,IC50 [nM]
1,"Fc1ccc(CNc2ncc3cc(-c4ccccc4Cl)n(CC4CNCCO4)c3n2)cc1F (centres unmarked) [Example 4.4, 6-(2-chlorophenyl)-N-(3,4-difluorobenzyl)-7-(morpholin-2-ylmethyl)-7H-pyrrolo[2,3-d]pyrimidin-2-amine]",10 to 100
2,"Cc1c(-c2ccccc2Cl)n(C[C@@H]2CCCNC2)c2nc(NCc3ccc(F)c(F)c3)ncc12 [Example 3.1, (R)-6-(2-chlorophenyl)-N-(3,4-difluorobenzyl)-5-methyl-7-(piperidin-3-ylmethyl)-7H-pyrrolo[2,3-d]pyrimidin-2-amine]",10 to 100
3,"Oc1ccc(CNc2ncc3cc(-c4ccccc4Cl)n(C[C@@H]4CCCNC4)c3n2)cc1 [Example 1.2, (R)-4-((6-(2-chlorophenyl)-7-(piperidin-3-ylmethyl)-7H-pyrrolo[2,3-d]pyrimidin-2-ylamino)methyl)phenol]",10 to 100
4,"Cc1c(-c2ccccc2)n(C[C@@H]2CCCNC2)c2nc(NCc3ccc(F)c(F)c3)ncc12 [Example 3.3, (R)—N-(3,4-difluorobenzyl)-5-methyl-6-phenyl-7-(piperidin-3-ylmethyl)-7H-pyrrolo[2,3-d]pyrimidin-2-amine]",100 to 10000
5,"Oc1ccc(CNc2ncc3cc(-c4c(Cl)cccc4Cl)n(C[C@@H]4CCCNC4)c3n2)cc1 [Example 2.3, (R)-4-((6-(2,6-dichlorophenyl)-7-(piperidin-3-ylmethyl)-7H-pyrrolo[2,3-d]pyrimidin-2-ylamino)methyl)phenol]",100 to 10000
6,"Fc1ccc(CNc2ncc3cc(-c4ccccc4Cl)n(C[C@H]4CCNC4)c3n2)cc1F [Example 4.3, (S)-6-(2-chlorophenyl)-N-(3,4-difluorobenzyl)-7-(pyrrolidin-3-ylmethyl)-7H-pyrrolo[2,3-d]pyrimidin-2-amine]",10 to 100
7,"Fc1ccc(CNc2ncc3cc(-c4ccccc4Cl)n(C[C@@H]4CCNC4)c3n2)cc1F [Example 4.2, (R)-6-(2-chlorophenyl)-N-(3,4-difluorobenzyl)-7-(pyrrolidin-3-ylmethyl)-7H-pyrrolo[2,3-d]pyrimidin-2-amine]",100 to 10000
8,"COc1ccc(-c2cc3cnc(NCc4ccc(F)c(F)c4)nc3n2C[C@@H]2CCCNC2)c(Cl)c1 [Example 5.2, (R)-6-(2-chloro-4-methoxyphenyl)-N-(3,4-difluorobenzyl)-7-(piperidin-3-ylmethyl)-7H-pyrrolo[2,3-d]pyrimidin-2-amine]",10 to 100
9,"Fc1ccc(CNc2ncc3cc(-c4ccccc4Cl)n(C[C@H]4CCCNC4)c3n2)cc1F [Example 4.1, (S)-6-(2-chlorophenyl)-N-(3,4-difluorobenzyl)-7-(piperidin-3-ylmethyl)-7H-pyrrolo[2,3-d]pyrimidin-2-amine]",10 to 100
10,"Oc1cccc(CNc2ncc3cc(-c4ccccc4Cl)n(C[C@@H]4CCCNC4)c3n2)c1 [Example 1.3, (R)-3-((6-(2-chlorophenyl)-7-(piperidin-3-ylmethyl)-7H-pyrrolo[2,3-d]pyrimidin-2-ylamino)methyl)phenol]",10 to 100
11,"Oc1ccc(CNc2ncc3cc(-c4c(Cl)cccc4Cl)n(C[C@@H]4CCCNC4)c3n2)cc1Cl [Example 6.1, (R)-2-chloro-4-((6-(2,6-dichlorophenyl)-7-(piperidin-3-ylmethyl)-7H-pyrrolo[2,3-d]pyrimidin-2-ylamino)methyl)phenol]",< 10
12,"Fc1ccc(CNc2ncc3cc(-c4ccc(Cl)cc4Cl)n(C[C@@H]4CCCNC4)c3n2)cc1F [Example 5.4, (R)-6-(2,4-dichlorophenyl)-N-(3,4-difluorobenzyl)-7-(piperidin-3-ylmethyl)-7H-pyrrolo[2,3-d]pyrimidin-2-amine]",10 to 100
13,"Oc1ccc(CNc2ncc3cc(-c4c(Cl)cccc4Cl)n(C[C@@H]4CCCNC4)c3n2)cc1F [Example 6.2, (R)-4-((6-(2,6-dichlorophenyl)-7-(piperidin-3-ylmethyl)-7H-pyrrolo[2,3-d]pyrimidin-2-ylamino)methyl)-2-fluorophenol]",< 10

# Further lines, results first:
row,IC50 [nM],SMILES
1,< 10,"Clc1cccc(Cl)c1-c1cc2cnc(NCc3ccccc3)nc2n1C[C@@H]1CCCNC1 [Example 2.6, (R)-N-benzyl-6-(2,6-dichlorophenyl)-7-(piperidin-3-ylmethyl)-7H-pyrrolo[2,3-d]pyrimidin-2-amine]"
2,< 10,"Fc1cc(Cl)c(-c2cc3cnc(NCc4ccc(F)c(F)c4)nc3n2C[C@@H]2CCCNC2)c(Cl)c1 [Example 5.5, (R)-6-(2,6-dichloro-4-fluorophenyl)-N-(3,4-difluorobenzyl)-7-(piperidin-3-ylmethyl)-7H-pyrrolo[2,3-d]pyrimidin-2-amine]"
3,< 10,"Oc1ccc(-c2cc3cnc(NCc4ccc(F)c(F)c4)nc3n2C[C@@H]2CCCNC2)c(Cl)c1 [Example 5.3, (R)-3-chloro-4-(2-(3,4-difluorobenzylamino)-7-(piperidin-3-ylmethyl)-7H-pyrrolo[2,3-d]pyrimidin-6-yl)phenol]"
4,< 10,"Fc1ccc(CNc2ncc3cc(-c4c(Cl)cccc4Cl)n(C4CCCNCC4)c3n2)cc1F (centres unmarked) [Example 8.2, 7-(Azepan-4-yl)-6-(2,6-dichlorophenyl)-N-(3,4-difluorobenzyl)-7H-pyrrolo[2,3-d]pyrimidin-2-amine]"
5,< 10,"Fc1cccc(CNc2ncc3cc(-c4c(Cl)cccc4Cl)n(C[C@@H]4CCCNC4)c3n2)c1 [Example 2.5, (R)-6-(2,6-dichlorophenyl)-N-(3-fluorobenzyl)-7-(piperidin-3-ylmethyl)-7H-pyrrolo[2,3-d]pyrimidin-2-amine]"
6,< 10,"N#Cc1c(-c2c(Cl)cccc2Cl)n(C[C@@H]2CCCNC2)c2nc(NCc3ccc(F)c(F)c3)ncc12 [Example 7.1, (R)-6-(2,6-dichlorophenyl)-2-(3,4-difluorobenzylamino)-7-(piperidin-3-ylmethyl)-7H-pyrrolo[2,3-d]pyrimidine-5-carbonitrile]"
7,< 10,"Fc1ccc(CNc2ncc3c(Br)c(-c4c(Cl)cccc4Cl)n(C[C@@H]4CCCNC4)c3n2)cc1F [Example 7.3, (R)-5-bromo-6-(2,6-dichlorophenyl)-N-(3,4-difluorobenzyl)-7-(piperidin-3-ylmethyl)-7H-pyrrolo[2,3-d]pyrimidin-2-amine]"
8,< 10,"COc1ccc(CNc2ncc3cc(-c4c(Cl)cccc4Cl)n(C[C@@H]4CCCNC4)c3n2)cc1F [Example 2.4, (R)-6-(2,6-dichlorophenyl)-N-(3-fluoro-4-methoxybenzyl)-7-(piperidin-3-ylmethyl)-7H-pyrrolo[2,3-d]pyrimidin-2-amine]"
9,< 10,"Fc1ccc(CNc2ncc3cc(-c4c(Cl)cccc4Cl)n(CC4CNCCS4)c3n2)cc1F (centres unmarked) [Example 8.1, 6-(2,6-Dichlorophenyl)-N-(3,4-difluorobenzyl)-7-(thiomorpholin-2-ylmethyl)-7H-pyrrolo[2,3-d]pyrimidin-2-amine]"
10,< 10,"Fc1ccc(CNc2ncc3cc(-c4ccccc4Cl)n(C[C@@H]4CCCNC4)c3n2)cc1F [Example 1.1, (R)-6-(2-chlorophenyl)-N-(3,4-difluorobenzyl)-7-(piperidin-3-ylmethyl)-7H-pyrrolo[2,3-d]pyrimidin-2-amine]"
11,< 10,"Cc1ccc(-c2cc3cnc(NCc4ccc(F)c(F)c4)nc3n2C[C@@H]2CCCNC2)c(Cl)c1 [Example 5.1, (R)-6-(2-chloro-4-methylphenyl)-N-(3,4-difluorobenzyl)-7-(piperidin-3-ylmethyl)-7H-pyrrolo[2,3-d]pyrimidin-2-amine]"
12,< 10,"Oc1cccc(CNc2ncc3cc(-c4c(Cl)cccc4Cl)n(C[C@@H]4CCCNC4)c3n2)c1 [Example 2.1, (R)-3-((6-(2,6-dichlorophenyl)-7-(piperidin-3-ylmethyl)-7H-pyrrolo[2,3-d]pyrimidin-2-ylamino)methyl)phenol]"
13,< 10,"Fc1ccc(CNc2ncc3c(F)c(-c4c(Cl)cccc4Cl)n(C[C@@H]4CCCNC4)c3n2)cc1F [Example 7.2, (R)-6-(2,6-dichlorophenyl)-N-(3,4-difluorobenzyl)-5-fluoro-7-(piperidin-3-ylmethyl)-7H-pyrrolo[2,3-d]pyrimidin-2-amine]"
14,< 10,"Fc1ccc(CNc2ncc3cc(-c4c(Cl)cccc4Cl)n(C[C@@H]4CCCNC4)c3n2)cc1F [Example 2.2, (R)-6-(2,6-dichlorophenyl)-N-(3,4-difluorobenzyl)-7-(piperidin-3-ylmethyl)-7H-pyrrolo[2,3-d]pyrimidin-2-amine]"
15,< 10,"Oc1ccc(CNc2ncc3cc(-c4ccccc4Cl)n(C[C@@H]4CCCNC4)c3n2)cc1F [Example 1.4, (R)-4-((6-(2-chlorophenyl)-7-(piperidin-3-ylmethyl)-7H-pyrrolo[2,3-d]pyrimidin-2-ylamino)methyl)-2-fluorophenol]"
16,< 10,"Cc1c(-c2c(Cl)cccc2Cl)n(C[C@@H]2CCCNC2)c2nc(NCc3ccc(F)c(F)c3)ncc12 [Example 3.2, (R)-6-(2,6-dichlorophenyl)-N-(3,4-difluorobenzyl)-5-methyl-7-(piperidin-3-ylmethyl)-7H-pyrrolo[2,3-d]pyrimidin-2-amine]"
